Assay results as given in patent US11370763B2, “Compounds and compositions for treating conditions associated with NLRP activity” (Novartis AG, priority 2017, dated 2022).
Where two headings read alike, the source gives them in different places.

Test system: IL-1β production in PMA-differentiated THP-1 cells
Assay: IL-1β production in PMA-differentiated THP-1 cells stimulated with gramicidin (hTHP-1 assay containing 2% fetal bovine serum; Procedures 1-3)
Assay type: cell-based, human
Details: Homo sapiens, THP-1, hTHP-1 assay containing 2% fetal bovine serum, read-out: hTHP-1 IC50 (Average IC50 of compounds in hTHP-1 assay)
Summary of the method: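 THP-1 cells differentiated with PMA (20 ng/ml, 16-18 h), replated in 2% FBS RPMI (50,000 cells/well), preincubated 1 h with compound (top final 100 μM, 3-fold steps, 0.37% DMSO), then stimulated 2 h with gramicidin (5 μM). Supernatant IL-1β measured by HTRF.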

## CC(C)c1cc(C2(F)COC2)cc(C(C)C)c1CC(=O)N=S(N)(=O)c1ncc(C(C)(C)O)s1 (stereo not shown) [Example 94, N-(amino(5-(2-hydroxypropan-2-yl)thiazol-2-yl)(oxo)-λ^6-sulfaneylidene)-2-(4-(3-fluorooxetan-3-yl)-2,6-diisopropylphenyl)acetamide]
Class symbols
  IC50: 1 to 5 µM

## CCCc1cc(F)cc(CCC)c1CC(=O)N=S(N)(=O)c1cnc(C(C)(C)O)s1 (stereo not shown) [Example 95, N-(amino(2-(2-hydroxypropan-2-yl)thiazol-5-yl)(oxo)-λ^6-sulfaneylidene)-2-(4-fluoro-2,6-dipropylphenyl)acetamide]
Class symbols
  IC50: 0.2 to 1 µM

## CC(C)c1cc(F)cc(C(C)C)c1C(C)C(=O)N=S(N)(=O)c1cnc(C(C)(C)O)s1 (stereo not shown) [Example 96, N-(amino(2-(2-hydroxypropan-2-yl)thiazol-5-yl)(oxo)-λ^6-sulfaneylidene)-2-(4-fluoro-2,6-diisopropylphenyl)propanamide]
Given as numeric bound
  IC50: > 30 µM

## CC(C)c1cc(-c2ccc3c(c2)COCC3)cc(C(C)C)c1CC(=O)N=S(N)(=O)c1cnc(C(C)(C)O)s1 (stereo not shown) [Example 97, N-(amino(2-(2-hydroxypropan-2-yl)thiazol-5-yl)(oxo)-λ^6-sulfaneylidene)-2-(4-(isochroman-7-yl)-2,6-diisopropylphenyl)acetamide]
Class symbols
  IC50: 0.2 to 1 µM

## CC(C)(O)c1ncc(S(N)(=O)=NC(=O)Cc2c(C3CC3)cc(F)cc2C(F)(F)F)s1 (stereo not shown) [Example 98]
Class symbols
  IC50: 5 to 30 µM

## CC(C)c1nc(-c2cccc(C(F)(F)F)c2)c(F)c(C(C)C)c1CC(=O)N=S(=O)(NC(=O)OC(C)(C)C)c1cnc(C(C)(C)O)s1 (stereo not shown) [Example 99, tert-butyl (N-(2-(5-fluoro-2,4-diisopropyl-6-(3-(trifluoromethyl)phenyl)pyridin-3-yl)acetyl)-2-(2-hydroxypropan-2-yl)thiazole-5-sulfonimidoyl)carbamate]
Class symbols
  IC50: 1 to 5 µM

## CC(C)c1nc(-c2cccc(C(F)(F)F)c2)c(F)c(C(C)C)c1CC(=O)N=S(N)(=O)c1cnc(C(C)(C)O)s1 (stereo not shown) [Example 100]
Class symbols
  IC50: 0.2 to 1 µM

## CC(C)c1ncc(F)c(C(C)C)c1CC(=O)N=S(N)(=O)c1ccc(CN(C)C)cc1 (stereo not shown) [Example 101, N-(amino(4-((dimethylamino)methyl)phenyl)(oxo)-λ^6-sulfaneylidene)-2-(5-fluoro-2,4-diisopropylpyridin-3-yl)acetamide]
Class symbols
  IC50: 5 to 30 µM

## CC(C)c1cc(F)cc(C2CCOC2)c1CC(=O)N=S(N)(=O)c1cnc(C(C)(C)O)s1 (stereo not shown) [Example 102, N-(amino(2-(2-hydroxypropan-2-yl)thiazol-5-yl)(oxo)-λ^6-sulfaneylidene)-2-(4-fluoro-2-isopropyl-6-(tetrahydrofuran-3-yl)phenyl)acetamide]
Class symbols
  IC50: 5 to 30 µM

## CC(C)c1ccc(F)c(C(C)C)c1CC(=O)N=S(N)(=O)c1cnc(C(C)(C)O)s1 (stereo not shown) [Example 103, N-(amino(2-(2-hydroxypropan-2-yl)thiazol-5-yl)(oxo)-λ^6-sulfaneylidene)-2-(3-fluoro-2,6-diisopropylphenyl)acetamide]
Class symbols
  IC50: 0.2 to 1 µM

## CC(C)c1c(F)c(Cl)cc(C2CC2)c1CC(=O)N=S(N)(=O)c1cnc(C(C)(C)O)s1 (stereo not shown) [Example 104, N-(amino(2-(2-hydroxypropan-2-yl)thiazol-5-yl)(oxo)-λ^6-sulfaneylidene)-2-(4-chloro-6-cyclopropyl-3-fluoro-2-isopropylphenyl)acetamide]
Class symbols
  IC50: 0.2 to 1 µM

## COCc1cc(C(C)C)c(CC(=O)N=S(N)(=O)c2cc(C(C)(C)O)cs2)c(C(C)C)c1 (stereo not shown) [Example 105, N-(amino(4-(2-hydroxypropan-2-yl)thiophen-2-yl)(oxo)-λ^6-sulfaneylidene)-2-(2,6-diisopropyl-4-(methoxymethyl)phenyl) acetamide]
Class symbols
  IC50: 0.04 to 0.2 µM

## CC(C)c1ccc(F)c(C(C)C)c1CC(=O)N=S(N)(=O)c1cc(C(C)(C)O)cs1 (stereo not shown) [Example 106, N-(amino(4-(2-hydroxypropan-2-yl)thiophen-2-yl)(oxo)-λ^6-sulfaneylidene)-2-(3-fluoro-2,6-diisopropylphenyl)acetamide]
Class symbols
  IC50: 0.04 to 0.2 µM
